Measured values from PMC6009919, “Newer human inosine 5′-monophosphate dehydrogenase 2 (hIMPDH2) inhibitors as potential anticancer agents” (Journal of Enzyme Inhibition and Medicinal Chemistry, 2018).
Counter-ions that a name gives are not always drawn. Like-named read-outs stand apart in the source and are kept apart here.

What was measured:
[1] = test system: DU145 (prostate carcinoma); assay: Cell viability (MTT assay), DU145; format: cell-based; conditions: for IC50: MTT, 48-h incubation, triplicate, read-out: Cytotoxicity IC50 (μM) ± SD, DU145
Protocol: (§1) Cancer cell lines such as MDA-MB-231 (breast adenocarcinoma), DU145 (prostate carcinoma) and U87 MG (glioblastoma astrocytoma) were purchased from National Centre for Cell Sciences (NCCS) (Pune, India). Cytotoxic activity of compounds (>80% hIMPDH2 inhibition at 10 μM) was evaluated using colorimetric MTT assay on the above-mentioned cell lines. Briefly, cells were grown in DMEM media supplemented with foetal bovine serum (FBS) 10% and penicillin–streptomycin (50 U/ml, 50 µg/ml) at 37 °C, CO2 (5%) and air (95%). Logarithmically, growing cells were seeded using 96-well plate at different concentrations of the test compounds ranging from 0.01 to 100 μM (seeding density: MDA-MB-231: 10,000 cells/well, DU145: 8000 cells/well, U87 MG: 5000 cells/well). […] Each dilution of test compound was added in triplicate. Following 48-h incubation with the compounds, cells were incubated with MTT reagent (5 mg/ml) for 4 h, and then 100 μl of DMSO was added to dissolve formazan crystals. The absorbance was then measured at 540 nm and 630 nm (background scan) using EPOCH 2 BioTek microplate reader. The IC50 values for the tested compounds were calculated and expressed in μM using mean of triplicate readings.

[2] = test system: U87 MG (glioblastoma astrocytoma); assay: Cell viability (MTT assay), U87 MG; format: cell-based; conditions: for IC50: MTT, 48-h incubation, triplicate, read-out: Cytotoxicity IC50 (μM) ± SD, U87 MG
Protocol: as §1

[3] = test system: MDA-MB-231 (breast adenocarcinoma); assay: Cell viability (MTT assay), MDA-MB-231; format: cell-based; conditions: for IC50: MTT, 48-h incubation, triplicate, read-out: Cytotoxicity IC50 (μM) ± SD, MDA-MB-231
Protocol: as §1

hIMPDH2 = molecular target: T1, hIMPDH2 (Homo sapiens, UniProt P12268); assay: In vitro hIMPDH2 inhibition assay; format: biochemical; conditions: for inhibition at 10 µM / hIMPDH2 enzyme % Inhibition: ± SD, at 10 µM; for inhibition at 10 µM: read-out: hIMPDH2 enzyme % Inhibition; for IC50: triplicate, determined when inhibition >70% at 10 µM, read-out: hIMPDH2 enzyme IC50 (µM) ± SD
T1 construct: purchased NovoCIB SAS (Lyon, France)
Protocol: The enzyme (hIMPDH2) was purchased from NovoCIB SAS (Lyon, France). […] The assay was performed in a 200 µl final volume in 96-well UV plates (Tarsons, 980040, Tarsons Products Pvt. Ltd., Kolkata, India) with a reaction buffer composed of 100 mM Tris–HCl (pH 8.6), 100 mM KCl and 5 mM DTT, 4% v/v DMSO plus or minus test compound and 0.15 mU of purified hIMPDH2 enzyme per well (from 1.5 mg/ml stock solution). […] The reaction was initiated by the addition of (substrate buffer) 0.2 mM of IMP and 0.2 mM of NAD^+ and the assay was allowed to proceed at 37 °C for 45 min. The generated NADH was measured by reading the absorbance at 340 nm. […] The MPA (10 µM) was used as a positive control and DMSO as a vehicle control. […] Enzyme inhibition and IC50 values were expressed in % inhibition and μM, respectively.

[4] = hPBMC proliferation assay; format: cell-based; conditions: human, human peripheral blood mononuclear cells (hPBMC), read-out: % cell viability
Excerpt: Higher lipophilicity and masking of the –COOH in 1 could possibly be responsible for this observation since usually acids are prevented from entering in the CNS.[35] […] The possibility of the title compounds behaving as prodrugs could be minute due to the difficulty in hydrolysing the amide linkage inside cells and release of the active form “MPA”.

SMILES | inhibition at 10 µM (hIMPDH2) | hIMPDH2 enzyme % Inhibition (hIMPDH2) | IC50 (hIMPDH2) | other results
COc1c(C)c2c(c(O)c1C/C=C(\C)CCC(=O)O)C(=O)OC2 [Compound 1, Mycophenolic acid, reference compound] | 99.9 ± 1.2% |  |  | IC50 ([1]; Homo sapiens, DU-145): 2.94 ± 0.09 µM; IC50 ([2]; Homo sapiens, U-87 MG): 10.7 ± 0.21 µM; IC50 ([3]; Homo sapiens, MDA-MB-231): 4.38 ± 0.06 µM; viability [4]: 63%
COc1c(C)c2c(c(O)c1C/C=C(\C)CCC(=O)N[C@@H](C)c1ccccc1)C(=O)OC2 [Compound 14, (S)(E)-6–(4-hydroxy-6-methoxy-7-methyl-3-oxo-1,3-dihydroisobenzofuran-5-yl)-4-methyl-N-(1-phenylethyl)hex-4-enamide] | 59.1 ± 1.91% |  |  | 
COc1c(C)c2c(c(O)c1C/C=C(\C)CCC(=O)N[C@H](C)c1ccccc1)C(=O)OC2 [Compound 15] | > 70% | 73.94 ± 2.84% | 0.82 ± 0.32 µM | 
COc1c(C)c2c(c(O)c1C/C=C(\C)CCC(=O)NCc1ccccc1Cl)C(=O)OC2 [Compound 16] | > 70% | 72.04 ± 1.11% | 0.73 ± 0.06 µM | 
COc1c(C)c2c(c(O)c1C/C=C(\C)CCC(=O)NCc1ccco1)C(=O)OC2 [Compound 17] |  | 67.18 ± 4.16% |  | 
COc1ccc(CNC(=O)CC/C(C)=C/Cc2c(O)c3c(c(C)c2OC)COC3=O)cc1 [Compound 18] | 96.1 ± 2.51% |  | 0.33 ± 0.11 µM | IC50 ([1]; Homo sapiens, DU-145): 1.8 ± 0.07 µM; IC50 ([2]; Homo sapiens, U-87 MG): 5.26 ± 0.18 µM; IC50 ([3]; Homo sapiens, MDA-MB-231): 2.42 ± 0.11 µM
COc1c(C)c2c(c(O)c1C/C=C(\C)CCC(=O)NCc1ccc(C)cc1)C(=O)OC2 [Compound 19] | 73.4 ± 3.62% |  | 0.6 ± 0.13 µM | 
COc1c(C)c2c(c(O)c1C/C=C(\C)CCC(=O)NCc1ccc(Cl)cc1)C(=O)OC2 [Compound 20] |  | 81.36 ± 1.95% | 0.57 ± 0.11 µM | IC50 [1]: 2.69 ± 0.11 µM; IC50 [2]: 7.31 ± 0.17 µM; IC50 [3]: 4.1 ± 0.23 µM
COc1c(C)c2c(c(O)c1C/C=C(\C)CCC(=O)NCc1ccncc1)C(=O)OC2 [Compound 21] | 57.4 ± 1.02% |  |  | 
COc1c(C)c2c(c(O)c1C/C=C(\C)CCC(=O)NCc1ccccn1)C(=O)OC2 [Compound 22] | 59.4 ± 1.81% |  |  | 
COc1c(C)c2c(c(O)c1C/C=C(\C)CCC(=O)NCc1ccccc1C)C(=O)OC2 [Compound 23] | 84 ± 2.13% |  | 0.5 ± 0.18 µM | IC50 ([1]; Homo sapiens, DU-145): 1.28 ± 0.04 µM; IC50 ([2]; Homo sapiens, U-87 MG): 4.66 ± 0.07 µM; IC50 ([3]; Homo sapiens, MDA-MB-231): 0.77 ± 0.04 µM; potency relative to MPA, MDA-MB-231 ([3]; fold vs MPA): five-fold more potent than MPA
COc1c(C)c2c(c(O)c1C/C=C(\C)CCC(=O)NCCCCc1ccccc1)C(=O)OC2 [Compound 24] |  | 93.62 ± 3.17% | 0.48 ± 0.02 µM | IC50 ([1]; Homo sapiens, DU-145): 1.09 ± 0.02 µM; potency relative to MPA, DU145 ([1]; fold vs MPA): three-fold higher potency than MPA; IC50 ([2]; Homo sapiens, U-87 MG): 3.35 ± 0.09 µM; potency relative to MPA, U87 MG ([2]; fold vs MPA): three-fold more active than MPA; IC50 ([3]; Homo sapiens, MDA-MB-231): 1.46 ± 0.07 µM; viability [4]: 65%
COc1c(C)c2c(c(O)c1C/C=C(\C)CCC(=O)NCc1ccc3c(c1)OCO3)C(=O)OC2 [Compound 25] |  | 87.09 ± 4.54% | 0.51 ± 0.08 µM | IC50 [1]: 2.53 ± 0.15 µM; IC50 [2]: 8.16 ± 0.27 µM; IC50 [3]: 1.86 ± 0.16 µM
COc1c(C)c2c(c(O)c1C/C=C(\C)CCC(=O)NCCN1CCOCC1)C(=O)OC2 [Compound 26] | 36 ± 3.86% |  |  | 
COc1cccc(NC(=O)CC/C(C)=C/Cc2c(O)c3c(c(C)c2OC)COC3=O)c1 [Compound 27, (E)-6–(4-hydroxy-6-methoxy-7-methyl-3-oxo-1,3-dihydroisobenzofuran-5-yl)-N-(3-methoxyphenyl)-4-methylhex-4-enamide] | 30.8 ± 2.82% |  |  | 
COc1ccc(NC(=O)CC/C(C)=C/Cc2c(O)c3c(c(C)c2OC)COC3=O)cc1 [Compound 28] |  | 54.84 ± 1.15% |  | 
COc1cccc2c1C(=O)c1c(O)c3c(c(O)c1C2=O)C[C@@](O)(C(=O)CO)C[C@@H]3O[C@H]1C[C@H](N)[C@H](O)[C@H](C)O1 [Doxorubicin HCl, reference compound] |  |  |  | IC50 ([1]; Homo sapiens, DU-145): 0.21 ± 0.06 µM; IC50 ([2]; Homo sapiens, U-87 MG): 0.11 ± 0.02 µM; IC50 ([3]; Homo sapiens, MDA-MB-231): 0.54 ± 0.08 µM
